One series addresses T1, human EP4 (Homo sapiens, UniProt P35408).
T1 construct: expressed in transfected cells; host or cells: HEK293 cells transduced with EP4 BacMam baculovirus
Briefly: cAMP Gs functional assay (HTRF cAMP dynamic-2) in EP4-transfected HEK293 cells. The class given is cell-based. The settings on record: HEK293 cells transfected with EP4 BacMam virus. The protocol: Cloning, Baculovirus generation, large scale infection of HEK293 cells and membrane preparation: Human prostaglandin E2 receptor 4 (EP4) was cloned into pBacMam expression vector (GeneScript, UK). Transposition of EP4 DNA was performed using Invitrogen's Bac-to-Bac Baculovirus Expression Systems. P0 baculovirus was generated by transfecting SF9 Cells with bacmid DNA using Cellfectin II transfection reagent (ThermoFisher Scientific, UK). Following P0 generation P1 virus was then generated ready for large scale infection and membrane preparation. HEK293 cells were grown in DMEM (ThermoFisher Scientific, UK), supplemented with 10% heat inactivated fetal bovine serum (FBS). Cells were infected at a seeding density of 3.5 million cells/mL in 500 cm^3 flasks at 5% v/v EP4 Bacman. Expression was carried out over a 36 hour period at 37° C. with 5% CO2. The cells were removed using PBS and a cell scrapper. The cell culture was centrifuged at 2500 RPM for 10 mins at 4° C. The supernatant was then poured off and the pellet stored at −80° C. The pellet was defrosted and re-suspended in 15 mL of homogenising buffer (20 mM HEPES, 10 mM EDTA, pH 7.4). Then homogenised in mechanical homogeniser (VMR) for 10 seconds. The membrane was centrifuged in centrifuge tubes at 40,000 g for 15 mins at 4° C. The supernatant was poured away and re-suspended in 15 mL of homogenising buffer and homogenised for 20 seconds. The membrane was then centrifuged at 40,000 g for 45 mins at 4° C. The membrane was then re-suspended in 3 mL of storage buffer (20 mM HEPES, 0.1 mM EDTA, pH 7.4) mixing well. The resulting membranes were then stored at −80° C.
cAMP Gs Functional Assay: cAMP production following EP4 receptor activation was determined using the Homogeneous Time-Resolved Fluorescence (HTRF) cAMP dynamic-2 assay (Cisbio, France). HEK293 cells were transfected using a 0.5% EP4 Bacman virus for 36 hours, before dissociating the cells, and freezing at −150° C.
On the day of testing, increasing concentration of test compounds, alongside positive controls ([…] PGE2 (Tocris, Abingdon, UK)) and negative control (DMSO (Sigma-Aldrich, UK) were added to a ProxiPlate-384 Plus, White 384-shallow well Mircoplate, (PerkinElmer, USA) using the ECHO dispense.
Cells were defrosted in a water bath and resuspended in DMEM supplemented with 10% FBS before centrifuging at 1200 RPM for 5 mins to form a pellet. The pellet was resuspended in assay buffer (DMEM+0.5 mM IBMX (Tocris, Abingdon, UK)) to 0.5×10^6 cells/mL. Cell suspension, for a final assay concentration of 5000 cell/well was added using the multidrop to the pre-dispensed assay plate. The plate was then incubated at 37° C. for 30 mins, with 5% CO2. The cAMP production was determined as manufacturer's instructions, before plates were read on a PheraStar fluorescence plate reader (BMG LabTech, Germany).

A short description of series [1]: Unidirectional Caco-2 cell permeability assay. Conditions: human, apical pH 6.5, basolateral pH 7.4, 1 hour, 37° C., n=2. The series is classed as in vitro ADME. Here is the method: Caco-2 cells (ECACC) were seeded onto 24-well Transwell plates at 2×10^5 cells per well and used in confluent monolayers after a 21 day culture at 37° C. under 500 CO2. Test compounds were incubated at 10 μM, 0.2% DMSO final, n=2 in assay buffer (Hanks balanced salt solution supplemented with 25 mM HEPES, adjusted to pH 6.5). Hanks balanced salt solution supplemented with 25 mM HEPES, adjusted to pH 7.4 (0.2% DMSO final) was used for the basolateral chamber (as receiver).
Incubations were performed at 37° C., with samples removed from both donor and acceptor chambers at T=0 and 1 hour and compound analysed by mass spectrometry (LC-MS/MS) including an analytical internal standard ([…] carbamazepine).
Apparent permeability (Papp) values are shown in Table 3 and were determined from the relationship:
Where V is the volume of each Transwell compartment (apical 125 μL, basolateral 600 μL), and concentrations are the relative MS responses for compound (normalized to internal standard) in the donor chamber before incubation and acceptor chamber at the end of the incubation Area=area of cells exposed for drug transfer (0.33 cm^2).
Lucifer Yellow (LY) was added to the apical buffer in all wells to assess viability of the cell layer. As LY cannot freely permeate lipophilic barriers, a high degree of LY transport indicates poor integrity of the cell layer and wells with a LY Papp>10×10^−6 cm/s were rejected.
Compound recovery from the wells was determined from MS responses (normalized to internal standard) in donor and acceptor chambers at the end of incubation compared to response in the donor chamber pre-incubation.

T1 sequence (P35408 whole entry): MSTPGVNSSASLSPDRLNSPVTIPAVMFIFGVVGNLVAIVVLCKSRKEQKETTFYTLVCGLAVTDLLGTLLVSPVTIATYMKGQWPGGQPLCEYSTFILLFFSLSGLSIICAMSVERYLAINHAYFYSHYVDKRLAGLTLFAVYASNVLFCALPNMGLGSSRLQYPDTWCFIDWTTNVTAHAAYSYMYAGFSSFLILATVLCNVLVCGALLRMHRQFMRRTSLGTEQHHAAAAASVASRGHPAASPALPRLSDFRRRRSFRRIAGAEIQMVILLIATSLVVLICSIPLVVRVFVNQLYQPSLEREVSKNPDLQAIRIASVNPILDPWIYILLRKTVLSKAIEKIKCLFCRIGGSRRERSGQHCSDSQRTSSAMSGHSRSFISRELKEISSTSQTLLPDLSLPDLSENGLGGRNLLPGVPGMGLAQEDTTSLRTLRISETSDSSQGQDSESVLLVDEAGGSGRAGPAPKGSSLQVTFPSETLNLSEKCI

Turning to `Cc1cc(O)ccc1-c1cc(O)cc(CN2CCC[C@@H]2C(=O)N[C@@H](C)c2ccc(C(=O)O)c(O)c2)c1` [Example 35, 4-((S)-1-((R)-1-((4′,5-dihydroxy-2′-methyl-[1,1′-biphenyl]-3-yl)methyl)pyrrolidine-2-carboxamido)ethyl)-2-hydroxybenzoic acid], the EC50 on human EP4 (30 min at 37° C., HTRF cAMP, read-out: cAMP human EP4 pEC50 (converted)) is 0.0501 nM. Also, the cAMP human EP4 Emax at human EP4 (positive control PGE2) stood at 97%. In series [1], this compound gave a Papp A→B at 1 h, 10 μM of under 0.1 ×10⁻⁶ cm/s.

For the origin of these results see patent publication US20260042745A1, “PYRROLIDINE-2-CARBOXAMIDE DERIVATIVES AS PROSTAGLANDIN E2 RECEPTOR 4 (EP4) AGONISTS FOR THE TREATMENT OF GASTROINTESTINAL AND PULMONARY DISEASES” (NXERA PHARMA UK LIMITED, priority 2022, published 2026).
